Laboratory results taken from PMC10135057, “Molecular Modification of Kex2 P1’ Site Enhances Expression and Druggability of Fungal Defensin” (Antibiotics, 2023).
Several values for one entry are separate records, joined by “and”; a condition that tells them apart may be missing. Equal values may be shown once.

Experiments:
S. aureus ATCC 43300 [1] = experiment: microbe, parasite or virus in culture; format: cell-based, Staphylococcus aureus
Protocol: The effects of combination were evaluated by calculating the FICI. FICI ≤ 0.5 was defined as synergy, 0.5 < FICI ≤ 1 was defined as additivity, 1 < FICI ≤ 4 was defined as indifference, and FICI > 4 was defined as antagonism.

S. aureus E48 = experiment: microbe, parasite or virus in culture; format: cell-based, Staphylococcus aureus; settings: Staphylococcus aureus, E48
Protocol: (§1) The minimal inhibitory concentrations (MICs) assay was performed according to the CLSI procedures with the final peptide concentrations of 256, 128, 64, 32, 16, 8, 4, 2, 1, and 0.5 μg/mL, respectively. All tests were conducted in triplicate.

S. aureus CVCC 546 = experiment: microbe, parasite or virus in culture; format: cell-based, Staphylococcus aureus; settings: Staphylococcus aureus, CVCC546
Protocol: as §1

S. aureus ATCC 25923 = experiment: microbe, parasite or virus in culture; format: cell-based, Staphylococcus aureus; settings: Staphylococcus aureus, ATCC25923
Protocol: as §1

S. aureus ATCC 43300 [2] = experiment: Bactericidal kinetics (time-killing curves); format: cell-based, Staphylococcus aureus; settings: 2× MIC, within 2 h; S. aureus ATCC 43300, 10^6 CFU/mL
Protocol: The S. aureus ATCC 43300 in logarithmic growth stage was diluted to a final concentration of 10^6 CFU/mL. […] Samples were taken at 0, 0.5, 1, 2, 4, 6, 8, 10, 20, and 24 h, serially diluted, and visible colonies were counted on MHA plates.

S. aureus ATCC 43300 [3] = experiment: Stability in artificial intestinal fluid (MIC after treatment); format: in vitro ADME, Staphylococcus aureus; settings: 10 min, MIC vs S. aureus ATCC 43300, triplicate
Protocol: (§2) The tolerance of FNZ to temperature and pH was evaluated. The stability of FNZ in simulated gastric fluid, artificial intestinal fluid and mouse serum was carried out as previously described. […] All assays were conducted in triplicate.

[4] = tested on: Salmonella enterica ATCC 13076; experiment: Minimal inhibitory concentration (MIC); format: cell-based; settings: ATCC13076, CLSI procedure, triplicate
Protocol: as §1

[5] = tested on: Pseudomonas aeruginosa CICC 20625; experiment: Minimal inhibitory concentration (MIC); format: cell-based; settings: CICC20625, CLSI procedure, triplicate
Protocol: as §1

[6] = tested on: Staphylococcus aureus ATCC 43300; experiment: microbe, parasite or virus in culture; format: cell-based; settings: Staphylococcus aureus, ATCC43300
Protocol: as §1

[7] = tested on: Escherichia coli ATCC 25922; experiment: microbe, parasite or virus in culture; format: cell-based; settings: Escherichia coli, ATCC25922
Protocol: as §1

[8] = tested on: S. epidermidis ATCC 12228; experiment: microbe, parasite or virus in culture; format: cell-based, Staphylococcus epidermidis; settings: Staphylococcus epidermidis, ATCC12228
Protocol: as §1

S. aureus ATCC 43300 [9] = experiment: Post-antibiotic effect (PAE); format: cell-based, Staphylococcus aureus; settings: 2× MIC, 2 h exposure, 10^8 CFU/mL S. aureus ATCC 43300, 1000-fold dilution
Text: After the exposed time, the bacteria suspension was reconstructed by dilution to 1000 times with MHB medium to remove the influence of peptides and antibiotics. Samples were taken every hour, and then coated on MHA plate after gradient dilution. The calculation formula was from previous studies.

S. aureus ATCC 43300 [10] = experiment: Stability in simulated gastric fluid (MIC after treatment); format: in vitro ADME, Staphylococcus aureus; settings: 1 h, MIC vs S. aureus ATCC 43300, triplicate
Protocol: as §2

S. aureus ATCC 43300 [11] = experiment: Thermal stability (MIC after heat treatment); format: physicochemical, Staphylococcus aureus; settings: MIC vs S. aureus ATCC 43300, triplicate
Protocol: as §2

S. aureus ATCC 43300 [12] = experiment: Salts stability (MIC after incubation with Na+ or Mg2+); format: cell-based, Staphylococcus aureus; settings: for MIC: read-out: MIC after treatment
S. aureus ATCC 43300 [13] = experiment: pH stability (MIC after pH treatment); format: physicochemical, Staphylococcus aureus; settings: MIC vs S. aureus ATCC 43300, triplicate
Protocol: as §2

S. aureus ATCC 43300 [14] = experiment: Stability in mouse serum (MIC after treatment); format: in vitro ADME, Staphylococcus aureus; settings: mouse serum (25%), 1–4 h; MIC vs S. aureus ATCC 43300; triplicate
Protocol: as §2

[15] = 50 mM Mg2+, 37 °C, 1 h, MIC vs S. aureus ATCC 43300, triplicate
[16] = 100 mM Mg2+, 37 °C, 1 h, MIC vs S. aureus ATCC 43300, triplicate
[17] = 100 mM Na+, 37 °C, 1 h, MIC vs S. aureus ATCC 43300, triplicate
[18] = 150 mM Mg2+, 37 °C, 1 h, MIC vs S. aureus ATCC 43300, triplicate
[19] = 150 mM Na+, 37 °C, 1 h, MIC vs S. aureus ATCC 43300, triplicate
[20] = 300 mM Mg2+, 37 °C, 1 h, MIC vs S. aureus ATCC 43300, triplicate
[21] = 300 mM Na+, 37 °C, 1 h, MIC vs S. aureus ATCC 43300, triplicate
[22] = 500 mM Mg2+, 37 °C, 1 h, MIC vs S. aureus ATCC 43300, triplicate
[23] = 500 mM Na+, 37 °C, 1 h, MIC vs S. aureus ATCC 43300, triplicate

For `CN[C@H](CC(C)C)C(=O)N[C@H]1C(=O)N[C@@H](CC(N)=O)C(=O)N[C@H]2C(=O)N[C@H]3C(=O)N[C@H](C(=O)N[C@H](C(=O)O)c4cc(O)cc(O)c4-c4cc3ccc4O)[C@H](O)c3ccc(c(Cl)c3)Oc3cc2cc(c3O[C@@H]2O[C@H](CO)[C@@H](O)[C@H](O)[C@H]2O[C@H]2C[C@](C)(N)[C@H](O)[C@H](C)O2)Oc2ccc(cc2Cl)[C@H]1O` [Vancomycin, vancomycin], the MIC (S. aureus ATCC 43300 [1]; Staphylococcus aureus, ATCC43300, 16 h, read-out: MICa (MIC of drug alone)) was 1 µg/mL, the “Combination effect with FNZ (in words)” value (S. aureus ATCC 43300 [1]; checkerboard, S. aureus ATCC 43300) was “synergistic effect” and the FIC (S. aureus ATCC 43300 [1]; combination FNZ + Van, S. aureus ATCC 43300) was 0.125. The “MICc (MIC of drug used in combination)” value (S. aureus ATCC 43300 [1]; combination FNZ + Van, S. aureus ATCC 43300, checkerboard, 37 °C, 16 h) was 0.125 µg/mL, the “FICI (fractional inhibitory concentration index)” value (S. aureus ATCC 43300 [1]; combination of FNZ with the named antibiotic, S. aureus ATCC 43300, ≤0.5 synergy, 0.5-1 additivity, 1-4 indifference, >4 antagonism) was 0.25 and < 0.5 and the MIC (S. aureus E48) was 1 µg/mL and 0.67 µM. The MIC (S. aureus CVCC 546) was 1 µg/mL and 0.67 µM, the MIC (S. aureus ATCC 25923) was 4 µg/mL and 2.69 µM and the “Decrease of bacterial counts (log10 CFU/mL)” value (S. aureus ATCC 43300 [2]) was 0.216 log10 CFU/mL. The MIC after treatment (S. aureus ATCC 43300 [3]) was 1 μg/mL and 0.67 μM, the MIC [4] was > 128 µg/mL and > 86 µM and the MIC [5] was > 128 µg/mL and > 86 µM. For the same compound, the MIC [6] was 1 µg/mL and 0.67 µM, the MIC [7] was 128 µg/mL and 86 µM and the MIC [8] was 1 µg/mL and 0.67 µM. The PAE (S. aureus ATCC 43300 [9]) was 1.3 h, the MIC after treatment (S. aureus ATCC 43300 [10]) was 1 μg/mL and 0.67 μM and the MIC after treatment (S. aureus ATCC 43300 [11]; 20 °C for 1 h) was 1 μg/mL and 0.67 μM. The MIC after treatment (S. aureus ATCC 43300 [11]; 40 °C for 1 h) was 1 μg/mL and 0.67 μM, the MIC after treatment (S. aureus ATCC 43300 [11]; 60 °C for 1 h) was 1 μg/mL and 0.67 μM and the MIC after treatment (S. aureus ATCC 43300 [11]; 80 °C for 1 h) was 1 μg/mL and 0.67 μM. The MIC after treatment (S. aureus ATCC 43300 [11]; 100 °C for 1 h) was 1 μg/mL and 0.67 μM, the MIC after treatment (S. aureus ATCC 43300 [12]; [15]) was 1 µg/mL and the MIC (S. aureus ATCC 43300 [12]; [15]) was 0.67 µM. For the same compound, the MIC after treatment (S. aureus ATCC 43300 [12]; [16]) was 1 µg/mL, the MIC (S. aureus ATCC 43300 [12]; [16]) was 0.67 µM and the MIC after treatment (S. aureus ATCC 43300 [12]; [17]) was 1 µg/mL. It also gave an MIC (S. aureus ATCC 43300 [12]; [17]) of 0.67 µM, an MIC after treatment (S. aureus ATCC 43300 [12]; [18]) of 1 µg/mL and an MIC (S. aureus ATCC 43300 [12]; [18]) of 0.67 µM. For the same compound, the MIC after treatment (S. aureus ATCC 43300 [12]; [19]) was 1 µg/mL, the MIC (S. aureus ATCC 43300 [12]; [19]) was 0.67 µM and the MIC after treatment (S. aureus ATCC 43300 [12]; [20]) was 1 µg/mL. For the same compound, the MIC (S. aureus ATCC 43300 [12]; [20]) was 0.67 µM, the MIC after treatment (S. aureus ATCC 43300 [12]; [21]) was 1 µg/mL and the MIC (S. aureus ATCC 43300 [12]; [21]) was 0.67 µM. It also gave an MIC after treatment (S. aureus ATCC 43300 [12]; [22]) of 1 µg/mL, an MIC (S. aureus ATCC 43300 [12]; [22]) of 0.67 µM and an MIC after treatment (S. aureus ATCC 43300 [12]; [23]) of 1 µg/mL. For the same compound, the MIC (S. aureus ATCC 43300 [12]; [23]) was 0.67 µM, the MIC (S. aureus ATCC 43300 [12]; Staphylococcus aureus, ATCC43300, 1 h) was 1 µg/mL and 0.67 µM and the MIC after treatment (S. aureus ATCC 43300 [13]; pH 2) was 1 μg/mL and 0.67 μM. The MIC after treatment (S. aureus ATCC 43300 [13]; pH 4) was 1 μg/mL and 0.67 μM, the MIC after treatment (S. aureus ATCC 43300 [13]; pH 6) was 1 μg/mL and 0.67 μM and the MIC after treatment (S. aureus ATCC 43300 [13]; pH 8) was 1 μg/mL and 0.67 μM. For the same compound, the MIC after treatment (S. aureus ATCC 43300 [13]; pH 10) was 1 μg/mL and 0.67 μM and the MIC after treatment (S. aureus ATCC 43300 [14]) was 1 μg/mL and 0.67 μM.
